Assay results taken from US20150087622A1, “NEW METHOD OF USE OF A PESTICIDE” (SYNGENTA PARTICIPATIONS AG, priority 2012, published 2015).
Where two headings read alike, the source gives them in different places.

What was measured:
Diabrotica balteata = experiment: Transovarial effects on Diabrotica balteata adults fed on sprayed bean plants (% egg mortality); assay type: in vivo; conditions: for mortality at 10 ppm / mortality at 25 ppm / mortality at 50 ppm: Diabrotica balteata; for Transovarial effects on treated adults of Diabrotica balteata: at the used dose rates
Procedure: The following IGRs in Table 1 were tested for their transovarial effects on Diabrotica balteata by observing percentage egg mortality.
Bean plants (Phaseolus vulgaris, var. Amata) were treated in an automatic spray chamber (ARO-1) with around 500 l/ha. After drying of the spray deposits, plants were placed in gauze cages and infested with newly hatched (0-24 h old) Diabrotica balteata adults. After seven days, treated plants were removed and replaced by non-treated plants. From day seven to day 38 eggs were collected in three-day intervals, counted and checked on number of hatched larvae (% egg mortality). Percentage egg mortality was calculated as the number of unhatched eggs per total number of eggs laid.

Spodoptera frugiperda = experiment: Foliar spray application on cotton, larval mortality of Spodoptera frugiperda; assay type: in vivo; conditions: 4 DAT (days after treatment)
From the text: For example on both Spodoptera frugiperda and Plutella xylostella similar activities were obtained for the same rates: […]

[1] = egg laying period 1, read-out: % egg mortality: on egg laying period 1
[2] = egg laying period 2, read-out: % egg mortality: on egg laying period 2
[3] = egg laying period 3, read-out: % egg mortality: on egg laying period 3
[4] = egg laying period 4, read-out: % egg mortality: on egg laying period 4
[5] = egg laying period 5, read-out: % egg mortality: on egg laying period 5
[6] = egg laying period 6, read-out: % egg mortality: on egg laying period 6
[7] = egg laying period 7, read-out: % egg mortality: on egg laying period 7
[8] = egg laying period 8, read-out: % egg mortality: on egg laying period 8

Compound	mortality at 10 ppm (Diabrotica balteata; [1]) [%]	mortality at 10 ppm (Diabrotica balteata; [2]) [%]	mortality at 10 ppm (Diabrotica balteata; [3]) [%]	mortality at 10 ppm (Diabrotica balteata; [4]) [%]	mortality at 10 ppm (Diabrotica balteata; [5]) [%]	mortality at 10 ppm (Diabrotica balteata; [6]) [%]	mortality at 25 ppm (Diabrotica balteata; [1]) [%]	mortality at 25 ppm (Diabrotica balteata; [2]) [%]	mortality at 25 ppm (Diabrotica balteata; [3]) [%]	mortality at 25 ppm (Diabrotica balteata; [4]) [%]	mortality at 25 ppm (Diabrotica balteata; [6]) [%]	mortality at 50 ppm (Diabrotica balteata; [2]) [%]	mortality at 50 ppm (Diabrotica balteata; [3]) [%]	mortality at 50 ppm (Diabrotica balteata; [4]) [%]	mortality at 50 ppm (Diabrotica balteata; [5]) [%]	mortality at 50 ppm (Diabrotica balteata; [6]) [%]	Spray interval (Diabrotica balteata; Rate 25 g AI/ha) [days]	Transovarial effects on treated adults of Diabrotica balteata (Diabrotica balteata)	mortality at 50 ppm (Diabrotica balteata; [7]) [%]	Spray interval (Diabrotica balteata; Rate 12.5 g AI/ha) [days]	further results
O=C(NC(=O)c1c(F)cccc1F)Nc1cc(Cl)c(F)c(Cl)c1F [Nomolt, Teflubenzuron]	40	15	7	11	8	14	76	48	34	11	13	67	14	11	13	10	3	Transovarial effects can be observed			Spray interval (days) (Diabrotica balteata; Rate 5 g AI/ha): Insufficient; Spray interval (days) (Diabrotica balteata; Rate 12.5 g AI/ha): Insufficient
O=C(NC(=O)c1c(F)cccc1F)Nc1ccc(Oc2ccc(C(F)(F)F)cc2Cl)cc1F [Cascade, Flufenoxuron]	69	22	91	10	9	8	100	100	98	64	14	100	100	64	13	6	7	Transovarial effects can be observed	11	7	mortality at 10 ppm (Diabrotica balteata; [7]): 8%; mortality at 10 ppm (Diabrotica balteata; [8]): 8%; mortality at 25 ppm (Diabrotica balteata; [7]): 9%; mortality at 50 ppm (Diabrotica balteata; [8]): 9%; Spray interval (Diabrotica balteata; Rate 5 g AI/ha): 7 days
COc1cccc(C(=O)NN(C(=O)c2cc(C)cc(C)c2)C(C)(C)C)c1C [Intrepid, Methoxyfenozide]	7	8	9	7			13	13	7	11		14	10	9				transovarially inactive			
O=C(NC(=O)c1c(F)cccc1F)Nc1cc(Cl)c(OC(F)(F)C(F)C(F)(F)F)cc1Cl (stereo not shown) [Match, Lufenuron]	100	100	73	17	8	9	100	100	85	15	8	100	96	50	40	9	7	Transovarial effects can be observed	8	7	total number of sterilised (unhatched) eggs, considered over the whole test period (Diabrotica balteata; 5 g AI ha^-1): ~20%; total number of sterilised (unhatched) eggs, considered over the whole test period (Diabrotica balteata; 12.5 g AI ha^-1): ≈ 25%; total number of sterilised (unhatched) eggs, considered over the whole test period (Diabrotica balteata; 25 g AI ha^-1): ≈ 25%; mortality at 10 ppm (Diabrotica balteata; [7]): 12%; mortality at 10 ppm (Diabrotica balteata; [8]): 8%; mortality at 25 ppm (Diabrotica balteata; [7]): 9%; mortality at 50 ppm (Diabrotica balteata; [8]): 8%; Spray interval (Diabrotica balteata; Rate 5 g AI/ha): 5 days; LC50 (Spodoptera frugiperda): LC50 = 1 ppm
O=C(NC(=O)c1c(F)cccc1F)Nc1ccc(Cl)cc1 [Dimilin, Diflubenzuron]	0	11	6	10	9	12	0	7	5	5	10	16	3	5	7	7		transovarially inactive	8		
CCc1ccc(C(=O)NN(C(=O)c2cc(C)cc(C)c2)C(C)(C)C)cc1 [Mimic, Tebufenozide]	7	9	8	11			9	13	9	10		10	10	13				transovarially inactive			
O=C(NC(=O)c1c(F)cccc1F)Nc1cc(Cl)c(OC(F)(F)C(F)F)c(Cl)c1 [Consult, Hexaflumuron]	75	36	7	8	9	10	97	93	15	11	11	92	15	22	48	15	5	Transovarial effects can be observed		5	Spray interval (days) (Diabrotica balteata; Rate 5 g AI/ha): Insufficient
